From patent US12589064B2, “Trolox-peptide conjugate and use thereof” (Caregen Co., Ltd., priority 2019, dated 2026)
Where no end group is shown, it is not given here.

What was measured:
P-smad 1/5/8 protein = test: BMP2 cell signal transduction: P-smad 1/5/8 in HFDPC (western blot); type: cell-based, human; settings: 50 μM, 50 ng/μl BMP-2, 15 minutes; FIG. 13
Method: HFDPCs were dispensed by 3×10^5 in each well of a 6-well plate and cultivated overnight. The medium of the cultivated cells was replaced with a serum-free medium, and the experiments below were performed.
The HFDPC cells were treated with 50 ng/μl of BMP-2 and a Trolox-peptide (SEQ ID NO: 1) conjugate of 5 μM or 50 μM, and additionally cultivated for 15 minutes. Then, western blot was performed using a specific […] to a P-smad 1/5/8 protein which is a subprotein of which expression is controlled by BMP2 cell signal transduction (Cell signaling, USA), and the expression change of a protein was confirmed.

Bcl-2 = test: Expression of Bcl-2 protein involving cell death in HFDPC (western blot); type: cell-based, human; settings: 50 μM, 24 hours; FIG. 10
Method: (§1) HFDPCs were dispensed by 3×10^5 in each well of a 6-well plate and cultivated overnight. The medium of the cultivated cells was replaced with a serum-free medium, treatment with Trolox of 50 μM, a Trolox-peptide (SEQ ID NO: 2) conjugate of 50 μM, or a Trolox-peptide (SEQ ID NO: 3) conjugate of 50 μM, was performed for each, and additional cultivation was performed for 24 hours. Then, protein expression change was confirmed by performing western blot using a specific antibody to Bcl-2 and Bax proteins (Santacruz biotechnology, USA).

[1] = tested on: Human hair follicle dermal papilla cells (HFDPC); test: Cell proliferation of HFDPC (MTT); type: cell-based; settings: 0.5 μM, 5 μM or 50 μM, serum-free medium, 3 days, FIG. 4
Method: (§2) Human hair follicle dermal papilla cells (HFDPC) and HaCaT which is human keratinocyte were dispensed by 2×10^3 in each well of a 96-well plate and cultivated overnight. The medium of the cultivated cells was replaced with a serum-free medium, and treatment with Trolox-peptide conjugates of 0.5 μM, 5 μM or 50 μM were performed, and additional cultivation was performed for 3 days. Then, in order to confirm the proliferation of the cells, 4 mg/ml of 3-(4,5-dimethylthiazol-2-yl)-2,5-diphenyltetrazolium bromide (MTT) was put to the wells by 100 μl each and reacted for 4 hours. Formazan thus produced was treated with DMSO and dissolved, and light absorbance at 560 nm was measured using a microplate reader. In this case, as a positive control, 1 μM of IGF-1 or EGF, which is known as a growth factor promoting the proliferation of HFDPC and HaCaT cells was used, and as a comparison group, single compounds of Trolox and a peptide having the amino acid sequences of SEQ ID NO: 1 to SEQ ID NO: 3, having the same amounts as the Trolox-peptide conjugate of the present invention, were used.

Bax = test: Expression of Bax protein involving cell death in HFDPC (western blot); type: cell-based, human; settings: 50 μM, 24 hours; FIG. 10
Method: as §1

HaCaT human keratinocyte = test: Cell proliferation of HaCaT human keratinocyte (MTT); type: cell-based; settings: 0.5 μM, 5 μM or 50 μM, serum-free medium, 3 days, FIG. 5
Method: as §2

Trolox-peptide (SEQ ID NO: 1) conjugate: Trolox chemically bonded to the peptide Glu-Leu-Ile-Glu-His-Gly-Gly-Gly-Arg-Pro-Ala-Asp (SEQ ID NO: 1) (ELIEHGGGRPAD; not fully specified (N-terminus); printed as Glu-Leu-Ile-Glu-His-Gly-Gly-Gly-Arg-Pro-Ala-Asp; also: Trolox chemically bonded, site not given here)
level of expression of the P-smad 1/5/8 protein increased by the treatment with BMP2 (P-smad 1/5/8 protein): reduced

Cc1c(C)c2c(c(C)c1O)CCC(C)(C(=O)O)O2 (centres unmarked) [Trolox, 6-hydroxy-2,5,7,8-tetramethylchromane-2-carboxylic acid]
expression of Bcl-2 (Bcl-2): no change
cell proliferation of HFDPC [1]: rarely showed cell proliferation effects
expression of Bax (Bax): increased
cell proliferation of HaCaT (HaCaT human keratinocyte): rarely showed cell proliferation effects
